Experimental data as given in patent publication US8278464B2, “Insecticides” (Syngenta Crop Protection LLC, priority 2006, dated 2012).

Legend:
Format in all cases: in vivo
[1] = test system: Myzus persicae (Green Peach Aphid); assay: Activity against Myzus persicae, contact, sunflower leaf discs (Example B5); conditions: foliar, 144 h, 6 DAT
Experimental: Sunflower leaf discs are placed on agar in a 24-well microtiter plate and sprayed with test solutions. After drying, the leaf discs are infested with an aphid population of mixed ages. After an incubation period of 6 DAT, samples are checked for mortality and special effects (e.g. phytotoxicity).

[2] = test system: Spodoptera littoralis (Cotton Leafworm); assay: Systemic insecticide test for Spodoptera littoralis, maize seedlings, 12.5 ppm (Example B9); conditions: 96 h, 12.5 ppm in water, systemic via maize seedlings, larvae incubated four days
Experimental: (§1) Four day old maize seedlings (Zea mais, variety Stoneville) are placed individual in vials containing 24 ml water into which the chemical is diluted at 12.5 ppm. Seedlings are allowed to grow for six days. Subsequently leaves are cut and placed in a Petri dish (5 cm diameter), inoculated with twelve to fifteen 1st instar S. littoralis larvae and incubated for four days in a growth chamber (25° C., 50% r.h., 18:6 L:D photo period). Number of alive insects are counted and percentage of dead calculated. Tests were conducted with one replicate.

[3] = test system: Thrips tabaci (Onion Thrips); assay: Activity against Thrips tabaci, sunflower leaf discs (Example B7); conditions: foliar, 144 h, incubation 6 days
Experimental: Sunflower leaf discs are placed on agar in a 24-well microtiter plate and sprayed with test solutions. After drying, the leaf discs are infested with a thrips population of mixed ages. After an incubation period of 6 days, samples are checked for mortality and special effects (e.g. phytotoxicity).

[4] = test system: Spodoptera littoralis (Egyptian Cotton Leafworm); assay: Activity against Spodoptera littoralis, cotton leaf discs sprayed (Example B1); conditions: foliar, 72 h, L1 larvae, checked 3 days after treatment
Source text: Cotton leaf discs are placed on agar in a 24-well microtiter plate and sprayed with test solutions. After drying, the leaf discs are infested with 5 L1 larvae. The samples are checked for mortality, repellent effect, feeding behaviour, and growth regulation 3 days after treatment (DAT).

[5] = test system: Myzus persicae (Green Peach Aphid); assay: Activity against Myzus persicae, systemic, pea seedlings (Example B6); conditions: 144 h, 6 days after introduction
Source text: Roots of pea seedlings, infested with an aphid population of mixed ages, are placed directly in the test solutions. 6 days after introduction, samples are checked for mortality and special effects on the plant.

[6] = test system: Diabrotica balteata (Corn Root Worm); assay: Activity against Diabrotica balteata, artificial diet MTP (Example B4); conditions: 120 h, L2 larvae, incubation 5 days
Experimental: (§2) 24-well microtiter plate (MTP) with artificial diet is treated with test solutions by pipetting. After drying, the MTP's are infested with larvae (L2) (6-10 per well). After an incubation period of 5 days, samples are checked for larval mortality, antifeedant and growth regulation. In this test, compounds listed in the Tables above show good activity. In particular compounds T13.1.2, T15.1.1, T15.1.91, T13.1.1, T9.1.2 (diastereomer A), T9.1.2 (diastereomer B), T17.1.2 (diastereomer A), T17.1.2 (diastereomer B), T16.1.91, T13.1.92, T13.1.91, T13.1.6, T13.1.96, T44.1.2, T13.1.8, T13.1.23, T13.1.113, T13.1.21, T13.1.111 have an activity of over 80% at 400 ppm.

[7] = test system: Plutella xylostella (Diamond Back Moth); assay: Activity against Plutella xylostella, artificial diet MTP (Example B3); conditions: 120 h, L2 larvae, incubation 5 days
Experimental: as §2, with “larvae (L2) (10-15 per well).” for “larvae (L2) (6-10 per well).”, “(diastereomer B), T16.1.1, T17.1.2 (diastereomer” for “(diastereomer B), T17.1.2 (diastereomer”, “T16.1.91, T13.1.92, T13.1.361, T13.1.391, T13.1.91, T13.1.6,” for “T16.1.91, T13.1.92, T13.1.91, T13.1.6,”, “T13.1.8, T13.1.23, T13.1.93, T13.1.113, T13.1.21,” for “T13.1.8, T13.1.23, T13.1.113, T13.1.21,”

[8] = test system: Heliothis virescens (Tobacco Budworm); assay: Activity against Heliothis virescens, eggs on artificial diet (Example B2); conditions: 96 h, eggs 0-24 h old, incubation 4 days
Experimental: Eggs (0-24 h old) are placed in 24-well microtiter plate on artificial diet and treated with test solutions by pipetting. After an incubation period of 4 days, samples are checked for egg mortality, larval mortality, and growth regulation.

[9] = test system: Spodoptera littoralis (Lepidoptera:Noctuidae); assay: Systemic insecticide test for Spodoptera littoralis, comparison with state of the art (Example B11)
Experimental: as §1, with “the prescribed concentrations (3 and 0.8 ppm).” for “12.5 ppm.”, “(3.5” for “(5”, “calculated. Effects on larvae growth were compared to the control and percentage of larvae growth reduction calculated.” for “calculated.”

Structure (SMILES)	pest or weed control at 400 ppm [1]	pest or weed control at 12.5 ppm [2]	pest or weed control at 400 ppm [3]	pest or weed control at 400 ppm [4]	pest or weed control at 400 ppm [5]	pest or weed control at 400 ppm [6]	pest or weed control at 400 ppm [7]	pest or weed control at 400 ppm [8]	Death rate (%) after 4 days ([9]; concentration 0.8 ppm)	Larvae growth reduction (% compared to control) ([9]; concentration 0.8 ppm)	Death rate (%) after 4 days ([9]; concentration 3 ppm)	Larvae growth reduction (% compared to control) ([9]; concentration 3 ppm)
Cc1cc(C#N)cc(C(=O)NC2CS(=O)(=O)C2)c1NC(=O)c1cc(Br)nn1-c1ncccc1Cl [T13.1.96]	> 80%	> 80%	> 80%	> 80%	> 80%	> 80%	> 80%	> 80%				
O=C(NC1CCC1)c1cccc(Cl)c1NC(=O)c1cc(C(F)(F)F)nn1-c1ncccc1Cl [Comp. 296, reference compound]									0%	0%	0%	0%
Cc1cc(Cl)cc(C(=O)NC2(C)C[S+]([O-])C2)c1NC(=O)c1cc(C(F)(F)F)nn1-c1ncccc1Cl (single isomer, unassigned) [T9.1.2 (diastereomer A)]	> 80%	> 80%	> 80%	> 80%	> 80%	> 80%	> 80%	> 80%				
Cc1cc(Cl)cc(C(=O)NC2(C)CS(=N)(=O)C2)c1NC(=O)c1cc(C(F)(F)F)nn1-c1ncccc1Cl (single isomer, unassigned) [T17.1.2 (diastereomer A)]	> 80%	> 80%	> 80%	> 80%	> 80%	> 80%	> 80%	> 80%				
Cc1cc(Cl)cc(C(=O)NC2(C)CS(=O)(=O)C2)c1NC(=O)c1cc(C(F)(F)F)nn1-c1ncccc1Cl [T13.1.2, 2-(3-Chloro-pyridin-2-yl)-5-trifluoromethyl-2H-pyrazole-3-carboxylic acid [4-chloro-2-methyl-6-(3-methyl-1,1-dioxo-1λ^6-thietan-3-ylcarbamoyl)-phenyl]-amide]	> 80%	> 80%	> 80%	> 80%	> 80%	> 80%	> 80%	> 80%				
O=C(NC1CS(=O)(=O)C1)c1cccc(Cl)c1NC(=O)c1cc(C(F)(F)F)nn1-c1ncccc1Cl [T13.1.391]		> 80%		> 80%			> 80%	> 80%	10%	0%	55%	100%
Cc1cc(C#N)cc(C(=O)NC2(C)CS(=O)(=O)C2)c1NC(=O)c1cc(C(F)(F)F)nn1-c1ncccc1Cl [T13.1.92]	> 80%	> 80%	> 80%	> 80%	> 80%	> 80%	> 80%	> 80%				
Cc1cc(Cl)cc(C(=O)NC2CS(=O)(=O)C2)c1NC(=O)c1cc(OCC(F)(F)F)nn1-c1ncccc1Cl [T13.1.21]	> 80%		> 80%	> 80%	> 80%	> 80%	> 80%	> 80%				
